Where two headings read alike, the source gives them in different places.
Legend:
[1] = Solubility of the desbenzo analogue compared with 66; type: physicochemical
Description: For example, the melting point of 66 is 220° C. and the desbenzo analogue is 83.5° C.

[2] = tested on: 3D7 strain of Plasmodium falciparum; assay: Potency in the 3D7 strain of Plasmodium falciparum (EC50); type: cell-based; details: Plasmodium falciparum
From the text: (§1) The present invention relates to methods of treating malaria with tetrahydrobenzonaphtyridine carboxanilide (TBN) derivatives and related pyrrolinones and hydrolysis products thereof. These compounds are active against Plasmodium falciparum strains that are resistant to multiple drugs currently on the market. The present invention further relates to novel compounds and pharmaceutical compositions comprising such compounds. The compounds have been synthesized and tested for their potency in the 3D7 strain of Plasmodium falciparum. Their cytotoxicity was also tested in the BJ human fibroblast line. No compounds show significant cytotoxicity.
(§2) A high-throughput screen performed against the Plasmodium parasite. About 8,000 compounds were screened. Each hit was tested against resistant P. falciparum variants K1, V1S, D10DD, ATP4 1247, and C2B. Potency against these assays assured that the chemotype acts through a mechanism distinct from that of halofantrine, chloroquine, mefloquine, pyrimethamine, proguanil, atovaquone, and (+)SJ733. The toxicity of the compounds was also measured by testing their lethality against a BJ cell line (human fibroblasts). No TBNs were toxic. A structure activity investigation was performed in order to improve the EC50 of the TBNs to the single-digit nanomolar range, as well as to increase the water solubility.
(§3) Substituents were installed at N−2 by using a variety of methods. Reductive alkylation (Abdel-Magid, A. F.; Mehrman, S. J. A Review on the Use of Sodium Triacetoxyborohydride in the Reductive Amination of Ketones and Aldehydes. Org. Process Res. Dev. 2006, 10 (5), 971-1031) was a dependable technique that produced over fifteen analogues. Conjugate additions and nucleophilic substitutions provided most of the others. A type of reductive alkylation that uses carboxylic acids instead of aldehydes (the Beller reduction) led to two analogues (Sorribes, I.; Junge, K.; Beller, M. Direct Catalytic N-Alkylation of Amines with Carboxylic Acids. J. Am. Chem. Soc. 2014, 136 (40), 14314-14319. Some of the compounds listed were synthesized through other means, or were derived from other TBNs. Compounds 66 and 128 were produced by the amidation of acids 132 and 133, which had the corresponding substitution already installed. TBNs 93, and 94 were produced from the Pfitzinger products formed from the condensation of isatin with (R)-1-(1-phenylethyl)piperidin-4-one (134) and (S)-1-(1-phenylethyl)piperidin-4-one (135), respectively.

in vitro = type: cell-based; details: human
From the text: as §1, §2

[3] = tested on: resistant P. falciparum variant K1; assay: Potency against resistant P. falciparum variant K1 (EC50); type: cell-based; details: Plasmodium falciparum, K1, read-out: K1 EC50 (μM)
Description: as §2, §3

[4] = 3D7, read-out: 3D7 Mean EC50 (μM)

SMILES | solubility, in words [1] | EC50 ([2]; 3D7) [µM] | EC50 (in vitro) [nM] | EC50 [2, 4] [µM] | EC50 [3] [µM]
O=C(Nc1ccc(F)c(F)c1)c1ccnc2c1CN(Cc1ccccc1)CC2 [Compound 68, 6-Benzyl-N-(3,4-difluorophenyl)-5,6,7,8-tetrahydro-1,6-naphthyridine-4-carboxamide] | increased solubility versus 66 | 3.48 |  |  | 
C=CCN1CCc2nc3ccccc3c(C(=O)Nc3ccc(F)c(F)c3)c2C1 [Compound 92, 2-Allyl-N-(3,4-difluorophenyl)-1,2,3,4-tetrahydrobenzo[b][1,6]naphthyridine-10-carboxamide] |  |  | > 23300 | 0.128 ± 0.0238 | 0.0719
COc1ccc(N2C(=O)c3c4c(nc5cc(Cl)ccc35)CCN(CCc3ccccc3)C42)cc1OC (stereo not drawn) [Compound 178, 8-Chloro-2-(3,4-dimethoxyphenyl)-3-phenethyl-2a,3,4,5-tetrahydrobenzo[b]pyrrolo[4,3,2-de][1,6]naphthyridin-1(2H)-one] |  |  | 9320 ± 6690 | 0.00446 ± 0.002 | 
COC(=O)CCN1CCc2nc3ccccc3c(C(=O)Nc3ccc(F)c(F)c3)c2C1 [Compound 109, Methyl 3-(10-((3,4-difluorophenyl)carbamoyl)-3,4-dihydrobenzo[b][1,6]naphthyridin-2(1H)-yl)propanoate] |  |  | > 23300 | 0.673 ± 0.107 | 0.487
COc1ccc(NC(=O)c2c3c(nc4cc(Cl)ccc24)CCN(CCc2ccccc2)C3)cc1OC [Compound 166, 7-Chloro-N-(3,4-dimethoxyphenyl)-2-phenethyl-1,2,3,4-tetrahydrobenzo[b][1,6]naphthyridine-10-carboxamide] |  |  | > 24000 | < 0.0132 | 
CCOCCN1CCc2nc3ccccc3c3c2C1N(c1ccc(F)c(F)c1)C3=O (stereo not drawn) [Compound 180, 2-(3,4-Difluorophenyl)-3-(2-ethoxyethyl)-2a,3,4,5-tetrahydrobenzo[b]pyrrolo[4,3,2-de][1,6]naphthyridin-1(2H)-one] |  |  | > 24000 | 0.0087 ± 0.001 | 
N#CCCN1CCc2nc3ccccc3c(C(=O)Nc3ccc(F)c(F)c3)c2C1 [Compound 113, 2-(2-Cyanoethyl)-N-(3,4-difluorophenyl)-1,2,3,4-tetrahydrobenzo[b][1,6]naphthyridine-10-carboxamide] |  |  | > 23300 | 1.62 ± 1.25 | 2.05 ± 0.256
CC(C)(C)OC(=O)N1CCc2nc3ccccc3c(C(=O)Nc3ccc(F)c(F)c3)c2C1 [Compound 87, tert-Butyl 10-((3,4-difluorophenyl)carbamoyl)-3,4-dihydrobenzo[b][1,6]naphthyridine-2(1H)-carboxylate] |  |  | > 23300 | 1.67 ± 0.8 | 
O=C1c2c3c(nc4ccc(Cl)cc24)CCN(CCc2ccccc2)C3N1c1cccc(Cl)c1 (stereo not drawn) [Compound 176, 9-Chloro-2-(3-chlorophenyl)-3-phenethyl-2a,3,4,5-tetrahydrobenzo[b]pyrrolo[4,3,2-de][1,6]naphthyridin-1(2H)-one] |  |  | > 24000 | < 0.00296 | 
O=C1c2c3c(nc4ccc(Cl)cc24)CCN(CCc2ccccc2)C3N1c1ccc(Br)cc1 (stereo not drawn) [Compound 182, 2-(4-Bromophenyl)-9-chloro-3-phenethyl-2a,3,4,5-tetrahydrobenzo[b]pyrrolo[4,3,2-de][1,6]naphthyridin-1(2H)-one] |  |  | > 24000 | 0.0396 ± 0.017 | 
O=C1c2c3c(nc4cc(Cl)ccc24)CCN(CCc2ccccc2)C3N1c1ccc(Br)cc1 (stereo not drawn) [Compound 175, 2-(4-Bromophenyl)-8-chloro-3-phenethyl-2a,3,4,5-tetrahydrobenzo[b]pyrrolo[4,3,2-de][1,6]naphthyridin-1(2H)-one] |  |  | 15200 ± 8470 | < 0.00192 | 
O=C(Nc1cccc(Cl)c1)c1c2c(nc3cc(Cl)ccc13)CCN(CCc1ccccc1)C2 [Compound 167, 7-Chloro-N-(3-chlorophenyl)-2-phenethyl-1,2,3,4-tetrahydrobenzo[b][1,6]naphthyridine-10-carboxamide] |  |  | > 24000 | 0.0216 ± 0.012 | 
COc1ccc(NC(=O)c2c3c(nc4ccc(Cl)cc24)CCN(CCc2ccccc2)C3)cc1OC [Compound 170, 8-Chloro-N-(3,4-dimethoxyphenyl)-2-phenethyl-1,2,3,4-tetrahydrobenzo[b][1,6]naphthyridine-10-carboxamide] |  |  | > 24000 | 0.116 ± 0.025 | 
O=C1c2c3c(nc4cc(Cl)ccc24)CCN(CCc2ccccc2)C3N1c1ccc(Cl)cc1 (stereo not drawn) [Compound 179, 8-Chloro-2-(4-chlorophenyl)-3-phenethyl-2a,3,4,5-tetrahydrobenzo[b]pyrrolo[4,3,2-de][1,6]naphthyridin-1(2H)-one] |  |  | 22600 ± 373 | 0.0059 ± 0.002 | 
O=C(Nc1ccc(Cl)cc1)c1c2c(nc3cc(Cl)ccc13)CCN(CCc1ccccc1)C2 [Compound 165, 7-Chloro-N-(4-chlorophenyl)-2-phenethyl-1,2,3,4-tetrahydrobenzo[b][1,6]naphthyridine-10-carboxamide] |  |  | > 24000 | < 0.00809 | 
CC(c1ccccn1)N1CCc2nc3ccccc3c(C(=O)Nc3ccc(F)c(F)c3)c2C1 (stereo not drawn) [Compound 90, N-(3,4-Difluorophenyl)-2-(1-(pyridin-2-yl)ethyl)-1,2,3,4-tetrahydrobenzo[b][1,6]naphthyridine-10-carboxamide] |  |  | > 11700 | 0.0603 ± 0.0234 | 0.0439
CN(C)C(=O)CCN1CCc2nc3ccccc3c(C(=O)Nc3ccc(F)c(F)c3)c2C1 [Compound 110, N-(3,4-Difluorophenyl)-2-(3-(dimethylamino)-3-oxopropyl)-1,2,3,4-tetrahydrobenzo[b][1,6]naphthyridine-10-carboxamide] |  |  | > 23300 | 0.888 ± 0.459 | 0.658
